# Measurements from patent US20250049914A1, “STEROID ACID-PEPTIDE BASED INTRACELLULAR CARGO DELIVERY” (DEFENCE THERAPEUTICS INC., priority 2021, published 2025).
# “Also recorded” adds a separate entry of the source. Where a SMILES comes first, the peptide text is derived from it. Where no end group is shown, it is not given here. The star is where a group is joined. Cholyl = C[C@H](CCC(=O)*)[C@H]1CC[C@H]2[C@@H]3[C@H](O)C[C@@H]4C[C@H](O)CC[C@]4(C)[C@H]3C[C@H](O)[C@]12C
# B1: [CA-SV40]-OVA: OVA covalently conjugated to CA-SV40 NLS moieties via SM(PEG)4 cross-linker (conjugate, UniProt P01012 2-386, looked up)
# Ovalbumin: GSIGAASMEFCFDVFKELKVHHANENIFYCPIAIMSALAMVYLGAKDSTRTQINKVVRFDKLPGFGDSIEAQCGTSVNVHSSLRDILNQITKPNDVYSFSLASRLYAEERYPILPEYLQCVKELYRGGLEPINFQTAADQARELINSWVESQTNGIIRNVLQPSSVDSQTAMVLVNAIVFKGLWEKAFKDEDTQAMPFRVTEQESKPVQMMYQIGLFRVASMASEKMKILELPFASGTMSMLVLLPDEVSGLEQLESIINFEKLTEWTSSNVMEERKIKVYLPRMKMEEKYNLTSVLMAMGITDVFSSSANLSGISSAESLKISQAVHAAHAEINEAGREVVGSAEAGVDAASVSEEFRADHPFLFCIKHIATNAVLFFGRCVSP
# modifications: CA-SV40 NLS peptides via SM(PEG)4
# notes: OVA covalently conjugated to CA-SV40 NLS moieties via SM(PEG)4 cross-linker
# B2: [CA-SV40]-DQ™ OVA: DQ OVA conjugated with a molar excess of CA-SV40 NLS steroid acid-peptide moieties (conjugate, UniProt P01012 2-386, looked up)
# Ovalbumin: B1 Ovalbumin
# modifications: DQ fluorophore label; CA-SV40 NLS conjugates
# notes: DQ OVA conjugated with a molar excess of CA-SV40 NLS steroid acid-peptide moieties
# B3: DQ™ OVA: fluorogenic substrate DQ ovalbumin (protein, UniProt P01012 2-386, looked up)
# Ovalbumin: B1 Ovalbumin
# modifications: DQ fluorophore label
# notes: fluorogenic substrate DQ ovalbumin
# Key:
# EL4 cells = test: Cytochrome C cytosolic delivery, cell death (annexin V binding) by flow cytometry; format: cell-based
# Experimental: Cytochrome C is a protein that is normally entrapped in the mitochondria but its release into the cytosol in known to induce cell death. An experiment was performed in which EL4 cells were incubated with recombinant cytochrome C either alone (FIG. 8A) or mixed with CA-SV40 NLS (47 μM) (FIG. 8B). Successful delivery of cytochrome C to the cytosol in its active form was assessed by measuring cell death (annexin V binding) via flow cytometry.
# BMDCs = test: Antigen-presentation assay using the B3Z reporter system, BMDCs; format: cell-based, mouse; conditions: BMDCs, OVA admixed, best conjugate: antigen ratio
# Experimental: (§1) Mouse bone marrow derived DCs (BMDCs) were generated by flushing the whole marrow from mouse femurs using RPMI™ 1640 supplemented with 10% fetal bovine serum (FBS), 50 U/mL Penicillin-Streptomycin, 2 mM L-glutamine, 10 mM HEPES, 1% MEM Non-essential Amino Acids, 1 mM Sodium Pyruvate, 0.5 mM beta-mercaptoethanol. Following red blood cell lysis, cells were then cultured in media supplemented with 50 ng/mL murine recombinant GM-CSF. The media was changed on days 2, 4, 6 and 8. On day 9, the media was replaced to include recombinant murine GM-CSF and LPS from Escherichia coli 0111 (1 ng/mL) to stimulate DC maturation. Mature DCs were assessed by flow cytometry for their surface expression of CD3, CD19, NK1.1, CD11c, CD80, CD86, and I-A^b.
# (§2) Various bile acid-NLS conjugates were screened using the B3Z reporter system. The B3Z cell line is a T-cell hybridoma specific for the H2-K^b-[…] complex. Once activated via its TCR, the LacZ reporter gene (under the NFAT promoter control) is expressed. Briefly, 1.5×10^5 BMDCs or 2.5×10^5 MSCs were co-cultured with 5×10^4 B3Z cells treated with the mixing conditions of ovalbumin (OVA) and bile acid-NLS conjugates for overnight at 37° C. with 5% CO2. The following day, all cells were washed twice with PBS (pH 7.4), and the cell pellets were lysed by adding 100 μL of a lysis buffer containing 0.15 mM chlorophenol red-beta-D-galactopyranoside (CPRG) substrate (Calbiochem, La Jolla, CA), 0.125% NP40 (EMD Sciences, La Jolla, CA), 9 mM MgCl2 (Aldrich, USA) and 100 mM 2-mercaptoethanol in PBS. After a 5- or 24-h incubation at 37° C., absorbance was taken at 570 nm with 636 nm as the reference wavelength. For these experiments, OVA was re-suspended in PBS (pH 7.3) at 5-10 mg/mL. The different bile acid-NLS conjugates were re-suspended in H2O at 10 mg/mL. Bile acid-NLS conjugate: antigen mixtures were prepared at different molar ratios according to Table 1.
# Variants of CA-SV40NLS were synthesized in order to explore structure-activity relationships relating to the antigen cross-presentation enhancing activity observed for this conjugate, and therefore a measure of antigen/cargo delivery. More particularly, conjugates having different bile acids conjugated to the SV40NLS peptide (SEQ ID NO: 1) were synthesized and their effect on antigen presentation was evaluated by using the B3Z reporter system with the OVA antigen as described in Example 1. […] In FIG. 11, no increase in antigen cross-presentation in BMDCs over the antigen alone (“OVA”) was observed when OVA was mixed with either unconjugated cholic acid (“CA”) or SV40NLS peptide (“SV40NLS”), although lower sensitivity of the B3Z reporter system as compared to the OT-I CD8 T cell-based assay may have been a factor.
# (§3) Further variants of CA-SV40NLS were synthesized in which the SV40NLS peptide was replaced with peptides comprising other NLS's (Table 5) and the antigen presentation activities of the CA-NLS peptide conjugates were evaluated using the B3Z reporter system as described in Example 1. The following conjugate: antigen molar ratios were tested for each conjugate: 2:1, 4:1, 8:1, 12:1 and 22:1. The results in FIGS. 12-15 compare the antigen presentation activities of different conjugates at the conjugate: antigen ratio that yielded the highest B3Z response (OD570) for that conjugate.
# [1] = system: cross-presenting mesenchymal stromal cell line (cpMSC); test: Antigen-presentation assay using the B3Z reporter system, cross-presenting MSC line; format: cell-based; conditions: cpMSCs, OVA admixed, vs OVA alone or OVA mixed with CA-SV40NLS
# Experimental: as §2, §3
# cpMSCs [2] = test: OVA-AF647 internalization in cpMSCs, flow cytometry; format: cell-based; conditions: various molar ratios
# Experimental: For this experiment, a cross-presenting mesenchymal stromal cell line (cpMSC) was used as the antigen presenting cells, which were pulsed with the OVA cargo labelled with Alexa Fluor 647 (i.e., OVA^647)^TM. OVA^647 fluorescence was measured by flow cytometry. Different ratios of CA (NLS1 RPS17 [FIG. 16A]; NLS3 RPS17 [FIG. 16B]; and PQBP-1 [FIG. 16C] to antigen (CA: OVA=22:1, 12:1, 8:1, 4:1, and 2:1) were tested (hnRNPA1 M9 NLS at 2:1).
# (§4) To further dissect the effect of bile acid peptide conjugates on antigen presentation, antigen internalization and processing were evaluated. cpMSCs were pulsed with OVA-labelled with AF647 in the presence of various molar ratios of different bile acid peptide conjugates, NLS1-RPS17 [FIG. 16A]; NLS3 RPS17 [FIG. 16B]; PQBP-1 [FIG. 16C]; and hnRNPA1 M9 NLS [FIG. 6]) and fluorescence was assessed by flow cytometry. […] OVA processing was assessed by pulsing cpMSCs with DQ™-Ovalbumin (OVA-DQ) in the presence of the same bile acid peptide conjugates as in FIGS. 6 and 16.
# cpMSCs [3] = test: OVA-DQ processing in cpMSCs, flow cytometry; format: cell-based; conditions: various molar ratios
# Experimental: For this experiment, a cross-presenting mesenchymal stromal cell line (cpMSC) was used as the antigen presenting cells, which were pulsed with DQ™ Ovalbumin (i.e., OVADQ). OVADQ fluorescence was measured by flow cytometry. Different ratios of CA (NLS1 RSP17 [FIG. 17A]; NLS3 RPS17 [FIG. 17B]; and PQBP-1 [FIG. 17C] to antigen (CA: OVA=22:1, 12:1, 8:1, 4:1, and 2:1) were tested (hnRNPA1 M9 NLS at 2:1).
# as §4
# DC2.4 cells = test: eGFP-Gal3 assessment of damaged endosomes by microscopy; format: cell-based, murine; conditions: 0.1 mg/mL cargo, 3 h, 37° C.
# Experimental: For this assay, 15×10^3 DC2.4 cells were seeded on a sterile cover slide in a 24-well plate. Two days following transfection of DC2.4 cells with the eGFP-hGal3 mammalian expression vector, 0.1 mg/mL of cargo was added to cells then incubated for 3 h at 37° C. The cells were then washed twice to remove excess protein prior to being mounted on a slide. The slides were viewed by fluorescent microscopy (Nikon, Eclipse™ Ti2-U) and the results analyzed using the ImageJ™ software.
# A GFP-galectin-3 (GFP-Gal3) based detection system was utilized to explore the effect on endosomal membranes following intracellular delivery of steroid acid-peptide-conjugated cargoes. […] When expressed under normal conditions, Gal3 is evenly distributed across the cytosol but disruption of endosomal membranes allows Gal3 to access and bind luminal glycoproteins. We thus transiently transfected the murine dendritic cell line DC2.4 with a construct expressing Gal3 fused to enhanced green fluorescent protein (eGFP-Gal3). Two days later, DC2.4 cells were incubated with 0.1 mg/mL of either unconjugated OVA cargo or [CA-SV40]-OVA conjugated cargo for 3 h at 37° C. and the cells were observed by fluorescent microscopy.
# [4] = system: primary bone marrow-derived DCs; test: DQ OVA intracellular degradation/processing, flow cytometry; format: cell-based, mouse; conditions: primary BMDCs, six hours
# Experimental: as §1, with “I-A^b. To evaluate OVA degradation/processing, cells were incubated with 10 µg/mL DQ™ OVA (with or without steroid acid-peptide modification) at 37° C. 30 minutes later, cells were washed, and regular media was added. […] Fluorescence was monitored by analyzing the cells by flow cytometry. […] Briefly, while a strong fluorescence quenching effect is observed when the DQ™ OVA substrate remains intact, hydrolysis of DQ™ OVA into single dye-labeled peptides by proteases relieves this quenching, thereby producing brightly fluorescent products. […] Cells were then collected and fluorescence was monitored by flow cytometry.” for “I-A^b.”
molecule,measurement,setting,value
cytochrome C,"cell death, cytochrome C alone",EL4 cells; recombinant cytochrome C alone,did not trigger cell death
"PQBP-1 NLS: cholic acid conjugated to PQBP-1 NLS peptide CADREEGKERRHHRREELAPY (SEQ ID NO: 7) (not fully specified (N-terminus); also: cholic acid conjugate, site not given here)",antigen-presentation activity of cholic acid-NLS peptide conjugates (B3Z response),BMDCs,strikingly high antigen-presentation activity
same,antigen-presentation activity of cholic acid-NLS peptide conjugates (B3Z response),[1],strikingly high antigen-presentation activity
same,OVA internalization (OVA-AF647 fluorescence),cpMSCs [2],enhance OVA internalization
same,OVA processing (OVA-DQ fluorescence),cpMSCs [3],enhance OVA processing
NLS3-RPS17: cholic acid conjugated to NLS3 RPS17 peptide SKKLRNKIAGYVTHLMKRI (SEQ ID NO: 11),antigen-presentation activity of cholic acid-NLS peptide conjugates (B3Z response),BMDCs,high antigen presentation activity
same,OVA internalization (OVA-AF647 fluorescence),cpMSCs [2],enhance OVA internalization
same,OVA processing (OVA-DQ fluorescence),cpMSCs [3],enhance OVA processing
CC(C)[C@H](NC(=O)[C@H](CCCCN)NC(=O)[C@H](CCCNC(=N)N)NC(=O)[C@H](CCCCN)NC(=O)[C@H](CCCCN)NC(=O)[C@H](CCCCN)NC(=O)[C@@H]1CCCN1C(=O)CNC(=O)[C@H](Cc1ccc(O)cc1)NC(=O)CNC(=O)[C@H](CS)NC(=O)CC[C@@H](C)[C@H]1CC[C@H]2[C@@H]3[C@H](O)C[C@@H]4C[C@H](O)CC[C@]4(C)[C@H]3C[C@H](O)[C@]12C)C(=O)NCC(=O)NCC(=O)O [CA-SV40] (Cholyl-CGYGPKKKRKVGG-OH),"cell death, conjugate alone",EL4 cells; CA-SV40 NLS conjugate alone,19%
B1,eGFP-Gal3 marker pattern (endosomal membrane disruption),DC2.4 cells,became punctate; also recorded: punctate pattern
B2,DQ OVA fluorescence (intracellular degradation/processing),[4],sharp increase
B3,DQ OVA fluorescence (intracellular degradation/processing),[4],not observed
